In brackets after ≈: the same amount, converted by molar mass.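 Interpolation was linear, between the two tested concentrations surrounding the appropriate level; five concentrations were tested over 48 hours in 96-well plates. GI50 = concentration required for 50% inhibition of growth. TGI denotes the concentration required for complete inhibition of growth.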
Columns and labels:
Assay in all cases: NCI tumour cell line growth inhibition, 48 h
[1] = test system: MDA-MB-435
[2] = test system: ACHN renal
[3] = test system: NCI-H23 lung
[4] = test system: BT-549 breast
[5] = test system: IGROV1 ovarian
[6] = test system: RPMI-8226 leukemia
[7] = test system: HCT-15 colon
[8] = test system: HT29 colon
[9] = test system: U251 CNS
[10] = test system: UACC-257 melanoma

| Structure (SMILES) | GI50 [1] | TGI [1] | GI50 [2] | TGI [2] | GI50 [3] | TGI [3] | GI50 [4] | TGI [4] | GI50 [5] | TGI [5] | GI50 [6] | TGI [6] | GI50 [7] | TGI [7] | GI50 [8] | TGI [8] | GI50 [9] | TGI [9] | GI50 [10] | TGI [10] |
| --- | --- | --- | --- | --- | --- | --- | --- | --- | --- | --- | --- | --- | --- | --- | --- | --- | --- | --- | --- | --- |
| COc1cc(/C=C2/N=C(c3ccccc3)N(C3=NNC4(C(=O)N3)c3ccccc3-c3ccccc34)NC2=O)ccc1O | 26.7 µg/mL (≈ 47.9 µM) | 54.4 µg/mL | 36.3 µg/mL (≈ 65.2 µM) | 123 µg/mL | 15 µg/mL (≈ 27 µM) | 15 µg/mL | 25.9 µg/mL (≈ 46.6 µM) | 47.5 µg/mL | 30.4 µg/mL (≈ 54.6 µM) | 63.3 µg/mL | 50.2 µg/mL (≈ 90.1 µM) | > 150 µg/mL | 46.7 µg/mL (≈ 83.8 µM) | > 150 µg/mL | 27.7 µg/mL (≈ 49.7 µM) | 49.1 µg/mL | 24.5 µg/mL (≈ 44 µM) | 44.8 µg/mL | 27.2 µg/mL (≈ 49 µM) | 51.8 µg/mL |
| COc1ccc2nc3cc(Cl)ccc3c(NCCNCCCNC(=O)c3cc(-c4ccccc4)nc4ccccc34)c2c1 |  | > 100 µM |  | > 100 µM |  | > 100 µM |  | > 100 µM |  | > 100 µM |  | > 100 µM |  | > 100 µM |  | > 100 µM |  | > 100 µM |  | > 100 µM |
| Cc1c(NC2(C)C(=O)N(/N=C/c3ccccc3)N=C2c2ccccc2)n[nH]c1-c1ccccc1 (stereo not given) |  | > 100 µM |  | > 100 µM |  | > 100 µM |  | > 100 µM |  | > 100 µM |  | > 100 µM |  | > 100 µM |  | > 100 µM |  | > 100 µM |  | > 100 µM |
| COc1cc(C2SCC(=O)N2c2ccc(Oc3ccc(Cl)cc3)c(Cl)c2)cc(OC)c1OC (stereo not given) |  | 41.3 µM |  | > 100 µM |  | > 100 µM |  | 32.5 µM |  | 30.7 µM |  | > 100 µM |  | > 100 µM |  | 33.7 µM |  | > 100 µM |  | 33.3 µM |
| COc1ccc(C2C(C#N)=C(S)N(C3OC(CO)C(O)C(O)C3O)C(c3ccccc3)=C2C(C)=O)cc1 (stereo not given) |  | > 100 µM |  | > 100 µM |  | > 100 µM |  | > 100 µM |  | > 100 µM |  | > 100 µM |  | > 100 µM |  | > 100 µM |  | > 100 µM |  | > 100 µM |
| O=C(CNc1ccc(Cl)cc1Cl)NC1C=Cc2ccc(S(=O)(=O)Nc3ccc(Cl)cc3Cl)cc2C1=O (stereo not given) |  | > 100 µM |  | > 100 µM |  | > 100 µM |  | > 100 µM |  | > 100 µM |  | > 100 µM |  | > 100 µM |  | > 100 µM |  | > 100 µM |  | > 100 µM |
| Cc1ccc(N=Nc2c(C)c(C#N)c(=S)n(C3OC(CO)C(O)C(O)C3O)c2-c2ccccc2)cc1 (stereo not given) |  | 43.8 µM |  | > 100 µM |  | 40.4 µM |  | 42.1 µM |  | > 100 µM |  | > 100 µM |  | 63.7 µM |  | 89.2 µM |  | 30.8 µM |  | > 100 µM |
| NC(N)=NS(=O)(=O)c1ccc(NC(=O)c2ccc3nc4ccccc4c(Nc4ccc(S(N)(=O)=O)cc4)c3c2)cc1 |  | > 100 µM |  | > 100 µM |  | > 100 µM |  | > 100 µM |  | > 100 µM |  | > 100 µM |  | > 100 µM |  | > 100 µM |  | > 100 µM |  | > 100 µM |
| COC(=O)[C@@]12CCCC(=O)[C@@H]1[C@H]1CCCC[C@H]12 |  | > 100 µM |  | > 100 µM |  | > 100 µM |  | > 100 µM |  | > 100 µM |  | > 100 µM |  | > 100 µM |  | > 100 µM |  | > 100 µM |  | > 100 µM |
| CCO/C(O)=C(/C(=N)N1CCCC1)C(=O)Nc1cccc(C(F)(F)F)c1 |  | > 100 µM |  | > 100 µM |  | > 100 µM |  | > 100 µM |  | > 100 µM |  | > 100 µM |  | > 100 µM |  | > 100 µM |  | > 100 µM |  | > 100 µM |
| Cc1cc(=O)oc2cc(O)ccc12 |  | > 100 µM |  | > 100 µM |  | > 100 µM |  | > 100 µM |  | > 100 µM |  | > 100 µM |  | > 100 µM |  | > 100 µM |  | > 100 µM |  | > 100 µM |
| Cc1ccc(-c2n[nH]c(=O)[nH]2)cc1[N+](=O)[O-] |  | > 100 µM |  | > 100 µM |  | > 100 µM |  | > 100 µM |  | > 100 µM |  | > 100 µM |  | > 100 µM |  | > 100 µM |  | > 100 µM |  | > 100 µM |
| O=c1oc2ccc(Cl)cc2cc1-c1cn2cc(Cl)ccc2n1 |  | 1.18 µM |  | > 100 µM |  | > 100 µM |  | > 100 µM |  | > 100 µM |  | > 100 µM |  | > 100 µM |  | > 58.8 µM |  | > 100 µM |  | > 100 µM |

— PubChem BioAssay (NCI)
